Tested on: biosynthesis of cholesterol (rat liver homogenate)
Assay: CSI screen (inhibition of sterol synthesis; incorporation of 14C-acetate into non-saponifiable lipid by rat liver homogenate)
Assay type: biochemical
Conditions: 50% inhibition of sterol synthesis over a one-hour period
Method: The ability of compounds of the present invention to inhibit the biosynthesis of cholesterol was measured by a method (designated CSI screen) which utilizes the procedure described by R. E. Dugan, et al, Archiv. Biochem. Biophys., (1972), 152, 21-27. In this method, the level of HMG-CoA enzyme activity in standard laboratory rats is increased by feeding the rats a chow diet containing 5% cholestryramine for four days, after which the rats are sacrificed.
The rat livers are homogenized, and the incorporation of […] into non-saponifiable lipid by the rat liver homogenate is measured. The micromolar concentration of compound required for 50% inhibition of sterol synthesis over a one-hour period is measured, and expressed as an IC50 value.

**Q.** With C=C1CC2(C)CC1C(c1ccccc1)=C2C=CC1CC(O)CC(=O)O1 (centres unmarked) as the molecule, how does the IC50 read?
**A.** 440 nM

**Q.** How did the IC50 turn out when C=C1CC2(C)CC1C(c1ccccc1)=C2/C=C/[C@@H](O)C[C@@H](O)CC(=O)OCC (relative stereo) was run?
**A.** 440 nM

From patent publication US4906657A, “Bicyclo heptane and bicyclo octane substituted inhibitors of cholesterol synthesis” (Warner-Lambert Company, priority 1988, dated 1990)
